The target of one test is AKT. As to the kind of experiment: Kinase IC50, 33P radioisotope assay (Reaction Biology). Format: biochemical. The settings on record: recombinant kinase, 10 μM ATP. As for the experimental part:
The panel, which included the three members of the TAM family, was selected based on the selectivity profile frequently found for other AXL inhibitors.[9] Kinase inhibition studies were performed by Reaction Biology Corporation, USA, by measuring ^33P incorporation on the corresponding kinase substrate relative to DMSO.
To understand how these structural changes had affected the kinase selectivity of the new compounds, 12a–d were screened against the 12-member panel of kinases used for previous hits. As before, kinase inhibition screenings were performed using radioisotope based methods by Reaction Biology Corporation.
(§1) 6.2. Dose response cell viability assay
(§2) with 95 µl of fresh medium.
(§3) a separate 96-well intermediate plate.
(§4) containing cells. […] After 5 d, PrestoBlue™ cell
(§5) 6.3. Kinase screening assay

In test [1] the test system is AXL-overexpressing mouse breast cancer cells (AXL+). The test can be described thus: Dose response cell viability assay (PrestoBlue, day 5). In kind it is cell-based. To be noted: PrestoBlue at day 5.
The test system of a further test is BT474 cells (AXL–). The description is as above. Format: cell-based. To be noted: Homo sapiens, BT-474, 120 h, PrestoBlue at day 5.
Another test deals with MOLM-13 cells. Described as above. Format: cell-based. To be noted: Homo sapiens, MOLM-13, 120 h; PrestoBlue at day 5. The protocol: as §1, §2, §3, §4, §5
The next test relates to MV4-11 cells. The description is as above. In kind it is cell-based. The settings on record: Homo sapiens, MV4-11, 120 h; PrestoBlue at day 5. As for the experimental part: as §1, §2, §3, §4, §5
A further test concerns the target T1, AXL (Homo sapiens, UniProt P30530).
T1 construct: purchased Reaction Biology Corporation
T1 sequence (P30530 26-894): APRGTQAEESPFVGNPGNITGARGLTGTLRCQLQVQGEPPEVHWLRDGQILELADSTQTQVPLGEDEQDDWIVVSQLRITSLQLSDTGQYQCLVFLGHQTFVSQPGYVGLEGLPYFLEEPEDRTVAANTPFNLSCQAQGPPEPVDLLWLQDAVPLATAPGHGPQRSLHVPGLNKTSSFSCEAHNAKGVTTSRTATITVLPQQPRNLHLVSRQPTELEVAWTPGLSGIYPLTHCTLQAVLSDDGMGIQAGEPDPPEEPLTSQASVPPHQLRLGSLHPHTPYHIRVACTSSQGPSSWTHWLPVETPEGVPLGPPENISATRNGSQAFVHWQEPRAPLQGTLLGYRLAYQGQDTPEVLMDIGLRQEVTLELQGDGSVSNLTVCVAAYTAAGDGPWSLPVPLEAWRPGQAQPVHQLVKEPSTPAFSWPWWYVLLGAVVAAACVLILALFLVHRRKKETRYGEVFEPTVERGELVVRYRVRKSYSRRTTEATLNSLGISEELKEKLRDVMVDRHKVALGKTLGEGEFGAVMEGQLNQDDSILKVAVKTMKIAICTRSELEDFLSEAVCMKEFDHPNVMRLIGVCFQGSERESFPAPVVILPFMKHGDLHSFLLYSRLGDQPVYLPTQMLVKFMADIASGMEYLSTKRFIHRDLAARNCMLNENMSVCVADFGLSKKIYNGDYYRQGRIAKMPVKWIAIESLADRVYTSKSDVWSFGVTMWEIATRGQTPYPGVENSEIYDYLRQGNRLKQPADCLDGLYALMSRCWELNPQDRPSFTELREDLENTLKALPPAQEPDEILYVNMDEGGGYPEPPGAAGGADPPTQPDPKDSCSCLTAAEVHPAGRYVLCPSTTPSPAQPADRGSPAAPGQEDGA
The settings on record: cited from earlier work.

Turning to `Nc1nc(Nc2ccc3c(c2)CC[C@@H](N2CCCC2)CC3)nn1-c1cc2c(nn1)-c1ccccc1CCC2` [BGB324, reference compound], the IC50 – broadly, the concentration that gives 50% inhibition – at AKT is greater than 10 µM.
Turning to `CNc1ncc2c(-c3ccc(OC)cc3)nn(CC3CCCC3)c2n1` [Compound 7a], the EC50 (in general, the concentration at which the effect is half-maximal) is 14.1 µM in test [1] (Mus musculus, 120 h) and 24 µM in the test on BT474 cells (AXL–).
Take `CNc1ncc2c(-c3ccc(OC)c(OC)c3)nn(CC3CCCC3)c2n1` [Compound 7b]: the concentration giving a half-maximal response (EC50) was 14.1 µM in test [1] (Mus musculus, 120 h) and 26 µM in the test with BT474 cells (AXL–).
For `CNc1ncc2c(-c3cccc(C(N)=O)c3)nn(CC3CCCC3)c2n1` [Compound 7e], in that order: 16.3 µM and 24.7 µM.
As to `CNc1ncc2c(-c3ccc(N4CCNCC4)nc3)nn(CC3CCCC3)c2n1` [Compound 7f], on AKT, the IC50 is greater than 10 µM.
Consider `CNc1ncc2c(-c3ccc(N4CCNCC4)nc3)nn(CC3OCCO3)c2n1` [Compound 7g], for which, on AKT, the IC50 is greater than 10 µM. Further, the EC50 was determined as 10.3 µM in test [1] and 20.5 µM in the test on BT474 cells (AXL–).
For `CNc1ncc2c(-c3ccc(OC)cc3)nn(CC3OCCO3)c2n1` [Compound 7h], in that order: greater than 10 µM, 5.02 µM and 13.1 µM.
For `CNc1ncc2c(-c3ccc(F)cc3)nn(CC3OCCO3)c2n1` [Compound 7i], the EC50 in test [1] (Mus musculus, 120 h) turned out to be 65.8 µM; with BT474 cells (AXL–) it was 60 µM.
For `CNc1ncc2c(-c3ccc(N4CCNCC4)nc3)nn(Cc3cn(Cc4ccccc4)nn3)c2n1` [Compound 10a], the IC50 at AKT is greater than 10 µM. Besides, the EC50 stood at 1.47 µM in test [1] (Mus musculus, 120 h) and 3.62 µM with BT474 cells (AXL–).
With `CNc1ncc2c(-c3ccc(N4CCNCC4)nc3)nn(Cc3cn(C4CCCC4O)nn3)c2n1` (centres unmarked) [Compound 10b], the EC50 in test [1] (Mus musculus, 120 h) came to 34.1 µM; in the test on BT474 cells (AXL–), 18.4 µM.
As to `CNc1ncc2c(-c3ccc(N4CCNCC4)nc3)nn(Cc3cn(-c4ccsc4C(=O)OC)nn3)c2n1` [Compound 10d], the half-maximal inhibitory concentration (IC50) at AKT is greater than 10 µM. Besides, the EC50 in test [1] (Mus musculus, 120 h) turned out to be 1.83 µM; in the test on BT474 cells (AXL–), 6.49 µM.
In the case of `CNc1ncc2c(-c3ccc(N4CCNCC4)nc3)nn(Cc3cn(-c4ccc(OC)cc4)nn3)c2n1` [Compound 10f], the EC50 in test [1] (Mus musculus, 120 h) amounted to 3.7 µM; in the test on BT474 cells (AXL–) it was 16.8 µM.
As to `CNc1ncc2c(-c3ccc(N4CCNCC4)cc3)nn(Cc3cn(Cc4ccccc4)nn3)c2n1` [Compound 12a], the IC50 on AKT is greater than 10 µM. Besides, the EC50 in test [1] (Mus musculus, 120 h) was 39.7 µM; with BT474 cells (AXL–), 32.3 µM.
For `CNc1ncc2c(-c3ccc(N4CCN(C)CC4)nc3)nn(Cc3cn(Cc4ccccc4)nn3)c2n1` [Compound 12b] the same measures were greater than 10 µM, 6.91 µM and 25.7 µM.
For `CCN1CCN(c2ccc(-c3nn(Cc4cn(Cc5ccccc5)nn4)c4nc(NC)ncc34)cn2)CC1` [Compound 12c], the EC50 is greater than 100 µM in test [1] (Mus musculus, 120 h) and greater than 100 µM with BT474 cells (AXL–).
`CNc1ncc2c(-c3ccc(N4CCN(C(=O)C(C)(C)C)CC4)nc3)nn(Cc3cn(Cc4ccccc4)nn3)c2n1` [Compound 12d]: the IC50 at AKT was greater than 10 µM. For the same compound, the EC50 in test [1] (Mus musculus, 120 h) was found to be 9.16 µM; in the test with BT474 cells (AXL–) it was 12.4 µM.
With `CNc1ccc(-c2nn(Cc3cn(Cc4ccccc4)nn3)c3nc(NC)ncc23)cn1` [Compound 12f], the EC50 is greater than 100 µM in test [1] (Mus musculus, 120 h) and greater than 100 µM in the test with BT474 cells (AXL–). Moreover, in test [1], the “EC50 (AXL+ cells)” value was “completely inactive”.
For the compound `CNc1ncc2c(-c3ccc(N4CCN(C)CC4)nc3)nn(CC3CCCC3)c2n1` [Compound 13b], the values for the EC50 in the test on MOLM-13 cells and in the test on MV4-11 cells were 0.04 µM and 0.49 µM, respectively. In addition, at AKT, the IC50 was greater than 10 µM.
For the compound `CCN1CCN(c2ccc(-c3nn(CC4CCCC4)c4nc(NC)ncc34)cn2)CC1` [Compound 13c], the EC50 in the test with MOLM-13 cells was found to be 0.94 µM; in the test on MV4-11 cells, 3.49 µM. At AKT, the 50% inhibitory concentration (IC50) was greater than 10 µM.
As to `CNc1ncc2c(-c3ccc(N4CCN(C(=O)C(C)(C)C)CC4)nc3)nn(CC3CCCC3)c2n1` [Compound 13d], the EC50 in the test on MOLM-13 cells was 1.3 µM; in the test on MV4-11 cells it was 1.44 µM. In addition, at AKT, the IC50 was greater than 10 µM.
For the compound `COc1cc2c(Oc3ccc(NC(=O)C4(C(=O)Nc5ccc(F)cc5)CC4)cc3F)ccnc2cc1OCCCN1CCOCC1` [foretinib], the “reported to inhibit AXL at” value on AXL is 11 nM.
